Assay results published in US20070225253A1, “Use of a trioxopyrimidine for the treatment and prevention of bronchial inflammatory diseases” (priority 2004, published 2007).
pIC50: −log10 of the molar value.

Legend:
Human MMP-9 = Human MMP-9 (Homo sapiens, UniProt P14780); test: MMP enzymatic activity, modified fluorescence assay (DNP-substrate); type: biochemical; conditions: read-out: IC50 MMP-9
Procedure: (§1) IC50 values are measured by an in vitro assay for MMP enzymatic activity. Such an assay is described by Stack, M. S., and Gray, R. D., J. Biol. Chem. 264 (1989) 4277-4281. This assay is based on the determination of MMP enzymatic activity on a dinitrophenol substrate and fluorescence measurement of the substrate after cleaving by MMPs.
(§2) Inhibitors were tested in a modified fluorescence-assay as described by Stack, M. S., and Gray, R. D., J. Biol. Chem. 264 (1989) 4277-4281. Human MMP-1, MMP-2, MMP-3, MMP-9 and MMP-14 are commercially available (e.g. Calbiochem). The pro-enzymes were activated with 1 mM APMA (incubation for 30 min at 37° C.) immediately before testing. Activated enzyme is diluted to 100 ng/ml in incubation buffer (50 mM Tris, 100 mM NaCl, 10 mM CaCl2, pH 7.6). The compounds were dissolved in 100% DMSO. […] DNP-substrate (Bachem M1855, 255 μM) was dissolved in incubation buffer.
(§3) The test tube contains 970 μl incubation buffer, 10 μl inhibitor solution and 10 μl enzyme solution. The reaction was started by adding the 10 μl substrate solution.
(§4) Kinetics of activity were determined using excitation at 280 nm and emission at 346 nm measured on a FluoroMax™ (Spex Industries Inc., Edison, N.J., USA) over 120 sec. DMSO has been used as control instead of inhibitor solution.
(§5) IC50's are defined as the concentration of inhibitor that gives a signal that is 50% of the positive enzyme control.

Human MMP-14 = Human MMP-14 (Homo sapiens, UniProt P50281); test: as above; type: biochemical; conditions: read-out: IC50 MMP-14
Procedure: as §1, §2, §3, §4, §5

[1] = system: allergen-induced airway inflammation; test: Mouse model of asthma (OVA), inhalation, long-term exposure challenge (11 weeks); type: in vivo, mice; conditions: aerosol, long term allergen exposure (11 weeks)
Procedure: In order to study the modulation of airway inflammation by intraperitoneal injection of Compound I, mice were sensitized with 10 μg ovalbumin alumin-adsorbed (aluminject, perbio, Erembodegem, Belgium) injected intraperitonealy at days 0 and 7 and were subsequently exposed to OVA 1% or PBS aerosols for 30 minutes from day 21 to 24. Intraperitoneal injections were performed 30 min before OVA inhalations. The different injected formulations were: cremophor 10%-DMSO 10%-PBS 80%- Compound I30 mg/kg (suspension); cremophor 10%-DMSO 10%-PBS 80%- Compound I3.75 mg/kg (solution); HPβCD 200 mM Compound I 7.5 mg/kg (solution); HPβCD 200 mM. All results were compared to mice sensitized and exposed to PBS and OVA treated with PBS injected intraperitonealy. In order to study the modulation of airway inflammation by inhaled Compound I, mice were sensitized as described previously. Two protocols referred to as short exposure challenge and long-term exposure challenge were used. In the short exposure challenge, mice were exposed to aerosols of Compound I-complex at concentrations of 0.03 and 0.3 mg/ml of active compound in aqueous solution of from day 21 to 27 during 30 min in a Plexiglas exposure chamber (30×20×15 cm). Mice were exposed to OVA aerosols 30 minutes after the Compound I inhalation from day 23 to 27. […]
Twenty-four hours after the last allergen exposure, the bronchial hyper responsiveness was determined by measuring the Penh using a barometric plethysmograph as proposed by Hamelmann, E., et al., Am. […] The Penh was measured at baseline and 5 min after the inhalation of increasing doses (25, 50, 75 and 100 mM) of methacholine (Mch).
(§6) Immediately after the assessment of airway responsiveness, mice were sacrificed and 1 ml of PBS free of ionised calcium and magnesium but supplemented with 0.05 mM sodium EDTA was instilled 4 times via a tracheal cannula and recovered by gentle manual aspiration. […] A value from 0 to 3 per criteria was adjudged to each tissue section scored. […]

[2] = system: allergen-induced airway inflammation and bronchial hyperresponsiveness; test: Mouse model of asthma (OVA), inhalation, short exposure challenge; type: in vivo, mice; conditions: aerosol, short-term exposure; Compound I 0.03 and 0.3 mg/ml, fluticasone 1 mg/ml; vs placebo, p<0.0001
Procedure: In order to study the modulation of airway inflammation by intraperitoneal injection of Compound I, mice were sensitized with 10 μg ovalbumin alumin-adsorbed (aluminject, perbio, Erembodegem, Belgium) injected intraperitonealy at days 0 and 7 and were subsequently exposed to OVA 1% or PBS aerosols for 30 minutes from day 21 to 24. Intraperitoneal injections were performed 30 min before OVA inhalations. The different injected formulations were: cremophor 10%-DMSO 10%-PBS 80%- Compound I30 mg/kg (suspension); cremophor 10%-DMSO 10%-PBS 80%- Compound I3.75 mg/kg (solution); HPβCD 200 mM Compound I 7.5 mg/kg (solution); HPβCD 200 mM. All results were compared to mice sensitized and exposed to PBS and OVA treated with PBS injected intraperitonealy. In order to study the modulation of airway inflammation by inhaled Compound I, mice were sensitized as described previously. Two protocols referred to as short exposure challenge and long-term exposure challenge were used. In the short exposure challenge, mice were exposed to aerosols of Compound I-complex at concentrations of 0.03 and 0.3 mg/ml of active compound in aqueous solution of from day 21 to 27 during 30 min in a Plexiglas exposure chamber (30×20×15 cm). Mice were exposed to OVA aerosols 30 minutes after the Compound I inhalation from day 23 to 27. In the so called long-term inhalation challenge, mice were exposed to aerosols of Compound Iat concentrations of 0.03 and 0.3 mg/ml complexed with HPβCD in an aqueous solution during 30 min five days odd weeks and to OVA aerosols 3 days odd weeks for 11 weeks. No inhalations were performed during even weeks.
The aerosol were produced by using an ultrasonic nebuliser SYSTAM (Systeme Assistance Medical, Le Ledat, France), the vibration frequency of which is 2.4 MHz with variable vibration intensity and ventilation levels. Vibration intensity was fixed in position 6 and the ventilation level was 25(ν1/2)1/min.
Twenty-four hours after the last allergen exposure, the bronchial hyper responsiveness was determined by measuring the Penh using a barometric plethysmograph as proposed by Hamelmann, E., et al., Am. J Respir. Crit. Care Med. 156 (1997) 766-775). The Penh was measured at baseline and 5 min after the inhalation of increasing doses (25, 50, 75 and 100 mM) of methacholine (Mch).
as §6, with “aspiration. The recovered bronchoalveolar lavage fluid (BAL) was centrifuged (1800 rpm for 10 min at 4° C.).” for “aspiration.”

Chain of Human MMP-9 (P14780 107-707 limits assumed): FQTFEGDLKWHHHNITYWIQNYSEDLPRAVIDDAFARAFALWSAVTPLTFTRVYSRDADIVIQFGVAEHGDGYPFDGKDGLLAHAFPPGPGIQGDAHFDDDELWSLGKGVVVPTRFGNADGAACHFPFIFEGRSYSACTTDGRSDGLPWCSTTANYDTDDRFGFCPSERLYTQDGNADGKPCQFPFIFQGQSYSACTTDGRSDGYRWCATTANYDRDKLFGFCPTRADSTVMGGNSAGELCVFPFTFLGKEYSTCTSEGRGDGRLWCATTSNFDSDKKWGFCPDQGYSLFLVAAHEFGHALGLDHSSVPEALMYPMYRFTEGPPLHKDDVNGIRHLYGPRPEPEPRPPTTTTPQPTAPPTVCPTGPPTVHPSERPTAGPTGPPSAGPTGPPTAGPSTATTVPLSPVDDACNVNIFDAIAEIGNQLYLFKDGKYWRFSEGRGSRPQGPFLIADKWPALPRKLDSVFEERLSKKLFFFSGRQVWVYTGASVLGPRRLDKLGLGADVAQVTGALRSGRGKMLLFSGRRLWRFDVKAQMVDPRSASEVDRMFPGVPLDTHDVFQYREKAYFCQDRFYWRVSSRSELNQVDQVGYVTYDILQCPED

| SMILES | pIC50 (Human MMP-9) | pIC50 (Human MMP-14) | peribronchial inflammation score ([1]; p<0.0001) | BAL eosinophilia ([1]; p<0.001) | tissue eosinophil infiltration score ([1]; p<0.01) | eosinophilic inflammation in BAL [2] |
| --- | --- | --- | --- | --- | --- | --- |
| CNC(=O)[C@H](Cc1ccccc1)NC(=O)[C@H](CC(C)C)[C@H](CSc1cccs1)C(=O)NO [Batimastat, reference compound] | 7.64 | 7.72 |  |  |  |  |
| CCC(=O)O[C@]1(C(=O)SCF)[C@H](C)C[C@H]2[C@@H]3C[C@H](F)C4=CC(=O)C=C[C@]4(C)[C@@]3(F)[C@@H](O)C[C@@]21C |  |  | significantly decreased | significantly decreased | decreased | significant decrease |
